Assay results: the NIST ThermoML archive (doi:10.1016/j.jct.2013.02.017)

Assay: molar heat capacity at constant pressure
Conditions: 101.33 kPa, relaxation calorimetry - Quantum Design PPMS

O=P([O-])([O-])[O-].[Fe+3] [iron(III) phosphate]
molar heat capacity at constant pressure [J/K/mol]
Conditions	Crystal 1	Crystal 2
1 K	–	0.003782
1.886 K	–	0.04093
1.997 K	–	0.04782
2.181 K	–	0.0617
2.476 K	–	0.09126
2.736 K	–	0.127
3 K	–	0.18
3.028 K	–	0.1804
3.36 K	–	0.2601
3.752 K	–	0.3807
4 K	–	0.4766
4.187 K	–	0.5478
4.659 K	–	0.7673
4.845 K	–	0.8619
5 K	–	0.9387
5.18 K	–	1.047
5.77 K	–	1.391
6 K	–	1.539
6.414 K	–	1.814
6.798 K	–	2.084
7 K	–	2.22
7.132 K	–	2.309
7.933 K	–	2.865
8 K	–	2.913
8.77 K	–	3.466
8.832 K	–	3.516
9 K	–	3.635
10 K	–	4.367
10.05 K	–	4.403
11 K	–	5.121
11.15 K	–	5.235
12 K	–	5.897
12.38 K	–	6.189
12.94 K	–	6.616
13 K	–	6.67
13.73 K	–	7.26
14 K	–	7.443
14.43 K	–	7.762
14.95 K	–	8.294
15 K	–	8.323
15.43 K	–	8.719
15.94 K	–	9.181
16 K	–	9.243
16.43 K	–	9.674
16.95 K	–	10.23
17 K	–	10.28
17.45 K	–	10.8
17.84 K	–	11.2
18 K	–	11.49
18.13 K	–	11.71
18.45 K	–	12.08
18.82 K	–	12.45
19 K	–	12.58
19.22 K	–	12.73
19.66 K	–	13.2
19.99 K	–	13.49
20 K	–	13.57
20.25 K	–	13.97
20.64 K	–	14.43
20.82 K	–	14.73
21.1 K	–	15.1
21.5 K	–	15.55
21.71 K	–	16.04
21.92 K	–	16.34
22.11 K	–	16.68
22.32 K	–	17.08
22.51 K	–	17.48
22.73 K	–	17.86
22.92 K	–	18.38
23.11 K	–	18.7
23.36 K	–	19.34
23.55 K	–	19.72
23.76 K	–	20.25
23.95 K	–	20.84
24.15 K	–	21.42
24.38 K	–	21.93
24.61 K	–	22.61
24.87 K	–	23.08
25 K	23.11	23.11
25.08 K	23.28	–
25.18 K	22.8	–
25.4 K	21.44	–
25.43 K	20.48	–
25.62 K	18.26	–
25.68 K	17.59	–
25.72 K	17.26	–
25.94 K	15.76	–
25.99 K	15.49	–
26.15 K	14.92	–
26.41 K	14.37	–
26.94 K	13.87	–
27.46 K	13.73	–
27.94 K	13.72	–
28.45 K	13.76	–
28.97 K	13.89	–
29.45 K	14.01	–
29.98 K	14.01	–
30 K	14.02	–
30.99 K	14.13	–
32.01 K	14.38	–
33.01 K	14.68	–
34.02 K	15.04	–
35 K	15.41	–
35.05 K	15.43	–
36.05 K	15.83	–
37.06 K	16.23	–
38.07 K	16.64	–
39.08 K	17.07	–
40 K	17.52	–
40.08 K	17.53	–
41.1 K	17.99	–
42.11 K	18.43	–
43.12 K	18.88	–
44.12 K	19.31	–
45 K	19.76	–
45.14 K	19.79	–
46.14 K	20.26	–
47.17 K	20.76	–
48.16 K	21.23	–
49.19 K	21.7	–
50 K	22.04	–
50.22 K	22.15	–
53.7 K	23.85	–
55 K	24.35	–
59.64 K	26.61	–
60 K	26.66	–
65 K	28.97	–
66.28 K	29.55	–
70 K	31.26	–
73.59 K	32.72	–
75 K	33.49	–
80 K	35.67	–
81.69 K	36.3	–
85 K	37.77	–
90 K	39.9	–
90.72 K	40.16	–
95 K	42.03	–
100 K	44.11	–
100.73 K	44.09	–
110 K	48.06	–
110.86 K	47.98	–
120 K	51.77	–
120.94 K	51.73	–
130 K	55.28	–
131.04 K	55.47	–
140 K	58.62	–
141.13 K	58.97	–
150 K	61.85	–
151.25 K	62.31	–
160 K	64.98	–
161.4 K	65.71	–
170 K	68.05	–
171.44 K	68.87	–
180 K	71.06	–
181.6 K	71.84	–
190 K	74.02	–
191.71 K	74.76	–
200 K	76.93	–
201.83 K	77.69	–
210 K	79.79	–
211.94 K	80.42	–
220 K	82.59	–
222.06 K	83.12	–
230 K	85.33	–
232.15 K	85.84	–
240 K	88	–
242.24 K	88.09	–
250 K	90.6	–
252.28 K	90.69	–
260 K	93.11	–
262.36 K	92.91	–
270 K	95.55	–
272.53 K	95.97	–
273.15 K	96.3	–
280 K	97.9	–
282.61 K	99.14	–
290 K	100.17	–
292.62 K	101.41	–
298.15 K	101.96	–
300 K	102.35	–
302.73 K	102.84	–
